Data: PubChem BioAssay AID1963969 (Molecular Pharmacology Branch, DTP, NCI, 2024)

System: 817829-284-R-J1-PDC multi-cell spheroid viability
Test: Anticancer human tumor 817829-284-R-J1-PDC patient-derived colon adenocarcinoma cell line growth inhibition [PI3K]
Conditions: for IC50: curve of first compound; for viability, T/C: stronger effect = lower value; active = viability on the fitted dose curve at most 10% of control; inactive = the rest
In short: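 Stroma-containing spheroids: tumor line, pooled-donor HUVEC, hMSC. Treatments: targeted agents with PI3K inhibitors. Dosing: clinically relevant, half-log spacing, 10 microM ceiling without known Cmax. Read-out: cell viability.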

[1] = second compound 0.0316 µM, first compound 0.0316 µM
[2] = second compound 0.0316 µM, first compound 0.1 µM
[3] = second compound 0.0316 µM, first compound 0.316 µM
[4] = second compound 0.0316 µM, first compound 1 µM
[5] = second compound 0.0316 µM, first compound 3.16 µM
[6] = second compound 0.0316 µM, first compound 10 µM
[7] = second compound 0.1 µM, first compound 0.0316 µM
[8] = second compound 0.1 µM, first compound 0.1 µM
[9] = second compound 0.1 µM, first compound 0.316 µM
[10] = second compound 0.1 µM, first compound 1 µM
[11] = second compound 0.1 µM, first compound 3.16 µM
[12] = second compound 0.1 µM, first compound 10 µM
[13] = second compound 0.316 µM, first compound 0.0316 µM
[14] = second compound 0.316 µM, first compound 0.1 µM
[15] = second compound 0.316 µM, first compound 0.316 µM
[16] = second compound 0.316 µM, first compound 1 µM
[17] = second compound 0.316 µM, first compound 3.16 µM
[18] = second compound 0.316 µM, first compound 10 µM
[19] = second compound 1 µM, first compound 0.0316 µM
[20] = second compound 1 µM, first compound 0.1 µM
[21] = second compound 1 µM, first compound 0.316 µM
[22] = second compound 1 µM, first compound 1 µM
[23] = second compound 1 µM, first compound 3.16 µM
[24] = second compound 1 µM, first compound 10 µM
[25] = second compound 3.16 µM, first compound 0.0316 µM
[26] = second compound 3.16 µM, first compound 0.1 µM
[27] = second compound 3.16 µM, first compound 0.316 µM
[28] = second compound 3.16 µM, first compound 1 µM
[29] = second compound 3.16 µM, first compound 3.16 µM
[30] = second compound 3.16 µM, first compound 10 µM
[31] = second compound 10 µM, first compound 0.0316 µM
[32] = second compound 10 µM, first compound 0.1 µM
[33] = second compound 10 µM, first compound 0.316 µM
[34] = second compound 10 µM, first compound 1 µM
[35] = second compound 10 µM, first compound 3.16 µM
[36] = second compound 10 µM, first compound 10 µM
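Also: spheroids exposed to agents for seven days before readout.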
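For viability, T/C in this document: percent of vehicle DMSO control viability which is 100%.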

CNC(=O)c1ccc(N2C(=S)N(c3ccc(C#N)c(C(F)(F)F)c3)C(=O)C2(C)C)cc1F + Cc1nc(NC(=O)N2CCCC2C(N)=O)sc1-c1ccnc(C(C)(C)C(F)(F)F)c1
2.35 µM: IC50 (second compound 3.16 µM)
> 10 µM: IC50 (second compound 0.0316 µM) | IC50 (second compound 0.1 µM) | IC50 (second compound 0.316 µM)
inactive: viability, T/C [1] 95.7% | viability, T/C [2] 102% | viability, T/C [3] 96.2% | viability, T/C [4] 90.2% | viability, T/C [5] 67.6% | viability, T/C [6] 84.6% | viability, T/C [7] 69% | viability, T/C [8] 77.8% | viability, T/C [9] 87.4% | viability, T/C [10] 69.3% | viability, T/C [11] 56.4% | viability, T/C [12] 68.2% | viability, T/C [13] 106% | viability, T/C [14] 85.5% | viability, T/C [15] 68.8% | viability, T/C [16] 70.6% | viability, T/C [17] 77.2% | viability, T/C [18] 63.3% | viability, T/C [19] 60% | viability, T/C [20] 73.6% | viability, T/C [21] 68.7% | viability, T/C [22] 107% | viability, T/C [23] 63.3% | viability, T/C [24] 43.8% | viability, T/C [25] 67.3% | viability, T/C [26] 77.8% | viability, T/C [27] 81.8% | viability, T/C [28] 58.3% | viability, T/C [29] 48.5% | viability, T/C [30] 34.5% | viability, T/C [31] 60% | viability, T/C [32] 70% | viability, T/C [33] 54.8% | viability, T/C [34] 52.6% | viability, T/C [35] 38.3% | viability, T/C [36] 22.9%
6.96 µM: IC50 (second compound 1 µM)
1.15 µM: IC50 (second compound 10 µM)

C=CC(=O)N1CCN(c2nc(=O)n(-c3c(C)ccnc3C(C)C)c3nc(-c4c(O)cccc4F)c(F)cc23)C(C)C1 (stereo not drawn) + Cc1nc(NC(=O)N2CCCC2C(N)=O)sc1-c1ccnc(C(C)(C)C(F)(F)F)c1
0.0565 µM: IC50 (second compound 10 µM)
6.17 µM: IC50 (second compound 0.316 µM)
inactive: viability, T/C [1] 75.1% | viability, T/C [2] 75.8% | viability, T/C [3] 114% | viability, T/C [4] 77% | viability, T/C [5] 91% | viability, T/C [6] 54.7% | viability, T/C [7] 68.7% | viability, T/C [8] 70.2% | viability, T/C [9] 68.1% | viability, T/C [10] 53.5% | viability, T/C [11] 91.9% | viability, T/C [12] 33.6% | viability, T/C [13] 80.1% | viability, T/C [14] 63.8% | viability, T/C [15] 95.7% | viability, T/C [16] 55.7% | viability, T/C [17] 66% | viability, T/C [18] 41.2% | viability, T/C [19] 81.5% | viability, T/C [20] 65.3% | viability, T/C [21] 84.3% | viability, T/C [22] 63.1% | viability, T/C [23] 92.3% | viability, T/C [24] 31.4% | viability, T/C [25] 71.2% | viability, T/C [26] 61.8% | viability, T/C [27] 55.3% | viability, T/C [28] 75.8% | viability, T/C [29] 85.2% | viability, T/C [30] 50.9% | viability, T/C [31] 51.5% | viability, T/C [32] 49.2% | viability, T/C [33] 40.8% | viability, T/C [34] 51.6% | viability, T/C [35] 51.1% | viability, T/C [36] 37.4%
5.98 µM: IC50 (second compound 0.1 µM)
6.27 µM: IC50 (second compound 1 µM)
> 10 µM: IC50 (second compound 0.0316 µM) | IC50 (second compound 3.16 µM)

CC(=O)c1c(C)c2cnc(Nc3ccc(N4CCNCC4)cn3)nc2n(C2CCCC2)c1=O + Cc1nc(NC(=O)N2CCCC2C(N)=O)sc1-c1ccnc(C(C)(C)C(F)(F)F)c1
0.00326 µM: IC50 (second compound 1 µM)
inactive: viability, T/C (second compound 0.0316 µM, first compound 0.000316 µM) 88.4% | viability, T/C (second compound 0.0316 µM, first compound 0.001 µM) 96.1% | viability, T/C (second compound 0.0316 µM, first compound 0.00316 µM) 70.8% | viability, T/C (second compound 0.0316 µM, first compound 0.01 µM) 60.1% | viability, T/C [1] 52.8% | viability, T/C [2] 38.2% | viability, T/C (second compound 0.1 µM, first compound 0.000316 µM) 71.2% | viability, T/C (second compound 0.1 µM, first compound 0.001 µM) 79.7% | viability, T/C (second compound 0.1 µM, first compound 0.00316 µM) 52.4% | viability, T/C (second compound 0.1 µM, first compound 0.01 µM) 45% | viability, T/C [7] 38.1% | viability, T/C [8] 47.6% | viability, T/C (second compound 0.316 µM, first compound 0.000316 µM) 75.1% | viability, T/C (second compound 0.316 µM, first compound 0.001 µM) 53.8% | viability, T/C (second compound 0.316 µM, first compound 0.00316 µM) 65.9% | viability, T/C (second compound 0.316 µM, first compound 0.01 µM) 66.9% | viability, T/C [13] 34.7% | viability, T/C [14] 44.7% | viability, T/C (second compound 1 µM, first compound 0.000316 µM) 43.6% | viability, T/C (second compound 1 µM, first compound 0.001 µM) 55.4% | viability, T/C (second compound 1 µM, first compound 0.00316 µM) 51.6% | viability, T/C (second compound 1 µM, first compound 0.01 µM) 42.1% | viability, T/C [19] 37.3% | viability, T/C [20] 37% | viability, T/C (second compound 3.16 µM, first compound 0.000316 µM) 62.5% | viability, T/C (second compound 3.16 µM, first compound 0.001 µM) 58.9% | viability, T/C (second compound 3.16 µM, first compound 0.00316 µM) 38.3% | viability, T/C (second compound 3.16 µM, first compound 0.01 µM) 49.3% | viability, T/C [25] 32% | viability, T/C [26] 31.5% | viability, T/C (second compound 10 µM, first compound 0.000316 µM) 51.8% | viability, T/C (second compound 10 µM, first compound 0.001 µM) 43.8% | viability, T/C (second compound 10 µM, first compound 0.00316 µM) 40.7% | viability, T/C (second compound 10 µM, first compound 0.01 µM) 47.5% | viability, T/C [31] 43.8% | viability, T/C [32] 21.3%
0.00434 µM: IC50 (second compound 0.1 µM)
0.0272 µM: IC50 (second compound 0.0316 µM)
0.0236 µM: IC50 (second compound 0.316 µM)
< 0.000316 µM: IC50 (second compound 10 µM)
0.00205 µM: IC50 (second compound 3.16 µM)

Cn1nccc1Nc1nccc(-c2ccn(C(CO)c3ccc(Cl)c(F)c3)c(=O)c2)n1 (stereo not drawn) + CC(Nc1ccc2c(c1)OCCn1cc(N3C(=O)OCC3C(F)F)nc1-2)C(N)=O
7.18 µM: IC50 (second compound 0.0316 µM)
4.63 µM: IC50 (second compound 0.01 µM)
3.89 µM: IC50 (second compound 0.316 µM)
6.97 µM: IC50 (second compound 0.1 µM)
inactive: viability, T/C (second compound 0.00316 µM, first compound 0.0316 µM) 87.6% | viability, T/C (second compound 0.00316 µM, first compound 0.1 µM) 72.7% | viability, T/C (second compound 0.00316 µM, first compound 0.316 µM) 88.3% | viability, T/C (second compound 0.00316 µM, first compound 1 µM) 72.5% | viability, T/C (second compound 0.00316 µM, first compound 3.16 µM) 83.5% | viability, T/C (second compound 0.00316 µM, first compound 10 µM) 26.2% | viability, T/C (second compound 0.01 µM, first compound 0.0316 µM) 70% | viability, T/C (second compound 0.01 µM, first compound 0.1 µM) 79.8% | viability, T/C (second compound 0.01 µM, first compound 0.316 µM) 76.7% | viability, T/C (second compound 0.01 µM, first compound 1 µM) 70.9% | viability, T/C (second compound 0.01 µM, first compound 3.16 µM) 64.1% | viability, T/C (second compound 0.01 µM, first compound 10 µM) 22.2% | viability, T/C [1] 90.6% | viability, T/C [2] 102% | viability, T/C [3] 90.2% | viability, T/C [4] 105% | viability, T/C [5] 98.5% | viability, T/C [6] 30.9% | viability, T/C [7] 58.9% | viability, T/C [8] 84.9% | viability, T/C [9] 92.3% | viability, T/C [10] 115% | viability, T/C [11] 87% | viability, T/C [12] 33% | viability, T/C [13] 110% | viability, T/C [14] 67.6% | viability, T/C [15] 80.5% | viability, T/C [16] 60.8% | viability, T/C [17] 65.7% | viability, T/C [18] 33.1% | viability, T/C [19] 55.9% | viability, T/C [20] 63.7% | viability, T/C [21] 72.4% | viability, T/C [22] 80.3% | viability, T/C [23] 75.9% | viability, T/C [24] 34.4%
6.06 µM: IC50 (second compound 0.00316 µM)
> 10 µM: IC50 (second compound 1 µM)
